pEC50, pIC50: −log10 of the molar value. Calls of active or inactive are those of the source. No cut-off for these calls is given here.
Legend:
[1] = molecular target: T1, Sphingosine 1-phosphate receptor 1 (Homo sapiens, UniProt P21453); assay: Induction of human GFP-tagged chimeric S1P1R internalization in human U2Os cells by fluorescence microscopy; assay type: cell-based
[2] = molecular target: T2, Sphingosine 1-phosphate receptor 3 (Homo sapiens, UniProt Q99500); assay: Agonist activity at human S1P3R expressed in CHO cells by Ca(2+) mobilization assay; assay type: functional, cell-based
[3] = molecular target: T1, Sphingosine 1-phosphate receptor 1; assay: Induction of human GFP-tagged chimeric S1P1R internalization in human U2Os cells by fluorescence microscopy relative to 1-(4-(6-benzylbenzofuran-2-yl)-3-fluorobenzyl)azetidine-3-carboxylic acid; assay type: cell-based
[4] = molecular target: T1, Sphingosine 1-phosphate receptor 1; assay: Agonist activity at human S1P1R expressed in CHO cells assessed as stimulation of [35S]GTPgammaS binding; assay type: functional, cell-based
Homo sapiens = species on record: Homo sapiens; assay: Selectivity for human S1P1R over human S1P3R
[5] = molecular target: T2, Sphingosine 1-phosphate receptor 3; assay: Displacement of [33P]S1P from human S1P3R expressed in CHO cell membranes
[6] = Metabolic stability in human liver microsomes assessed as half life; assay type: ADME, Microsome
[7] = Inhibition of Cytochrome P450; assay type: ADME
[8] = Mutagenic activity in Salmonella Typhimurium by Ames assay; assay type: toxicity; details: salmonella enterica subsp. enterica serovar typhimurium
Rattus norvegicus [9] = assay: Toxicity in telemetered Sprague-Dawley rat assessed as increase in mean arterial pressure at 40 mg/kg, po measured 4 to 6 hrs post dose; assay type: organism-based, Artery; design: dose 40 mg/kg, route oral; details: in vivo
[10] = Terminal half life in Beagle dog at 2 mg/kg, iv or 3 mg/kg, po; assay type: ADME, organism-based, Canis lupus familiaris; details: in vivo, read-out: beta t1/2 (converted)
Rattus norvegicus [11] = assay: Lymphopenic activity in Lewis rat assessed as reduction in blood lymphocyte counts at 1 mg/kg, po measured 24 hrs post dose; assay type: functional
[12] = Terminal half life in Sprague-Dawley rat at 1 mg/kg, iv or 3 mg/kg, po; assay type: ADME, organism-based; details: in vivo, read-out: beta t1/2 (converted)
[13] = Clearance in Sprague-Dawley rat at 1 mg/kg, iv or 3 mg/kg, po; assay type: ADME, organism-based; details: in vivo
[14] = molecular target: Voltage-gated inwardly rectifying potassium channel KCNH2 (Homo sapiens, UniProt Q12809); assay: Inhibition of human ERG by patch-clamp method
Rattus norvegicus [15] = assay: Lymphopenic activity in po dosed Lewis rat assessed as reduction in blood lymphocyte counts measured 24 hrs post dose; assay type: functional, organism-based
[16] = Mean residence time in Beagle dog at 2 mg/kg, iv or 3 mg/kg, po; assay type: ADME, organism-based, Canis lupus familiaris; details: in vivo
Rattus norvegicus [17] = assay: Toxicity in telemetered Sprague-Dawley rat assessed as effect on heart rate at 20 mg/kg, po; assay type: organism-based; design: dose 20 mg/kg, route oral; details: in vivo
[18] = Terminal half life in cynomolgus monkey at 1 mg/kg, iv or 5 mg/kg, po; assay type: ADME, organism-based, Macaca fascicularis; details: in vivo, read-out: beta t1/2 (converted)
[19] = Mean residence time in cynomolgus monkey at 1 mg/kg, iv or 5 mg/kg, po; assay type: ADME, organism-based, Macaca fascicularis; details: in vivo
[20] = Volume of distribution at steady state in Sprague-Dawley rat at 1 mg/kg, iv or 3 mg/kg, po; assay type: ADME, organism-based; details: in vivo, read-out: Vdss
Rattus norvegicus [21] = assay: Lymphopenic activity in Lewis rat assessed as reduction in blood lymphocyte counts at 3 mg/kg, po measured 24 hrs post dose; assay type: functional
[22] = Oral bioavailability in cynomolgus monkey 5 mg/kg; assay type: ADME, organism-based, Macaca fascicularis; details: in vivo
[23] = Oral bioavailability in Beagle dog 3 mg/kg; assay type: ADME, organism-based, Canis lupus familiaris; details: in vivo
[24] = Oral bioavailability in Sprague-Dawley rat 3 mg/kg; assay type: ADME, organism-based; details: in vivo
[25] = Mean residence time in Sprague-Dawley rat at 1 mg/kg, iv or 3 mg/kg, po; assay type: ADME, organism-based; details: in vivo
Mus musculus = assay: Reversing disease course in experimental autoimmune encephalitis SJL mouse model of multiple sclerosis at 10 mg/kg, po; assay type: functional, organism-based; design: dose 10 mg/kg
[26] = Toxicity in rat assessed as No observed adverse effect level by 4 day repeated dose toxicity study; assay type: organism-based; details: in vivo
[27] = Clearance in cynomolgus monkey at 1 mg/kg, iv or 5 mg/kg, po; assay type: ADME, organism-based, Macaca fascicularis; details: in vivo
Rattus norvegicus [28] = assay: Toxicity in telemetered Sprague-Dawley rat assessed as increase in mean arterial pressure at 20 mg/kg, po measured 4 to 6 hrs post dose; assay type: organism-based, Artery; design: dose 20 mg/kg, route oral; details: in vivo
Rattus norvegicus [29] = assay: Toxicity in telemetered Sprague-Dawley rat assessed as effect on heart rate at 40 mg/kg, po; assay type: organism-based; design: dose 40 mg/kg, route oral; details: in vivo
[30] = Clearance in Beagle dog at 2 mg/kg, iv or 3 mg/kg, po; assay type: ADME, organism-based, Canis lupus familiaris; details: in vivo
[31] = Volume of distribution at steady state in cynomolgus monkey at 1 mg/kg, iv or 5 mg/kg, po; assay type: ADME, organism-based, Macaca fascicularis; details: in vivo, read-out: Vdss
[32] = Volume of distribution at steady state in Beagle dog at 2 mg/kg, iv or 3 mg/kg, po; assay type: ADME, organism-based, Canis lupus familiaris; details: in vivo, read-out: Vdss
[33] = Induction of Cytochrome P450; assay type: ADME

T2 sequence (Q99500 whole entry): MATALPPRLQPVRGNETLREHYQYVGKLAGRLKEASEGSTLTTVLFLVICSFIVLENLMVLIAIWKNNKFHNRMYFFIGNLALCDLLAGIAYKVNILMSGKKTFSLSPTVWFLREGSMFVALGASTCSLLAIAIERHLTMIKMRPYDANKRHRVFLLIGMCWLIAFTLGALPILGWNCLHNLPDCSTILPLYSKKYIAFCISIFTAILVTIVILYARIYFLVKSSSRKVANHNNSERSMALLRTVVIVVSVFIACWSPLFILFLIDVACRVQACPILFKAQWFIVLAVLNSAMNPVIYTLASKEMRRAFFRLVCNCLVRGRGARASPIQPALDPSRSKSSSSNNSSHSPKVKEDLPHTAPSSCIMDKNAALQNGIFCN
T1 sequence (P21453 whole entry): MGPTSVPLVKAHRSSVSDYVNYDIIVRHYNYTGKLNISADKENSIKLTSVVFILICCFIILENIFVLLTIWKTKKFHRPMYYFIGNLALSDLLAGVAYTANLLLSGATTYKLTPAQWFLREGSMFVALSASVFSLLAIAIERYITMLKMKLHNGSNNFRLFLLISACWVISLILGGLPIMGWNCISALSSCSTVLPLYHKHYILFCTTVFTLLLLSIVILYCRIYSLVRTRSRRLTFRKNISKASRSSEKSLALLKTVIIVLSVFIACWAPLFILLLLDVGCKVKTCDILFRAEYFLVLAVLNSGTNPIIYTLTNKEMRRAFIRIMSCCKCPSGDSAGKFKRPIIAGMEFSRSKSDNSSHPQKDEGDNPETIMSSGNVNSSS
Chain of Voltage-gated inwardly rectifying potassium channel KCNH2 (Q12809 whole entry): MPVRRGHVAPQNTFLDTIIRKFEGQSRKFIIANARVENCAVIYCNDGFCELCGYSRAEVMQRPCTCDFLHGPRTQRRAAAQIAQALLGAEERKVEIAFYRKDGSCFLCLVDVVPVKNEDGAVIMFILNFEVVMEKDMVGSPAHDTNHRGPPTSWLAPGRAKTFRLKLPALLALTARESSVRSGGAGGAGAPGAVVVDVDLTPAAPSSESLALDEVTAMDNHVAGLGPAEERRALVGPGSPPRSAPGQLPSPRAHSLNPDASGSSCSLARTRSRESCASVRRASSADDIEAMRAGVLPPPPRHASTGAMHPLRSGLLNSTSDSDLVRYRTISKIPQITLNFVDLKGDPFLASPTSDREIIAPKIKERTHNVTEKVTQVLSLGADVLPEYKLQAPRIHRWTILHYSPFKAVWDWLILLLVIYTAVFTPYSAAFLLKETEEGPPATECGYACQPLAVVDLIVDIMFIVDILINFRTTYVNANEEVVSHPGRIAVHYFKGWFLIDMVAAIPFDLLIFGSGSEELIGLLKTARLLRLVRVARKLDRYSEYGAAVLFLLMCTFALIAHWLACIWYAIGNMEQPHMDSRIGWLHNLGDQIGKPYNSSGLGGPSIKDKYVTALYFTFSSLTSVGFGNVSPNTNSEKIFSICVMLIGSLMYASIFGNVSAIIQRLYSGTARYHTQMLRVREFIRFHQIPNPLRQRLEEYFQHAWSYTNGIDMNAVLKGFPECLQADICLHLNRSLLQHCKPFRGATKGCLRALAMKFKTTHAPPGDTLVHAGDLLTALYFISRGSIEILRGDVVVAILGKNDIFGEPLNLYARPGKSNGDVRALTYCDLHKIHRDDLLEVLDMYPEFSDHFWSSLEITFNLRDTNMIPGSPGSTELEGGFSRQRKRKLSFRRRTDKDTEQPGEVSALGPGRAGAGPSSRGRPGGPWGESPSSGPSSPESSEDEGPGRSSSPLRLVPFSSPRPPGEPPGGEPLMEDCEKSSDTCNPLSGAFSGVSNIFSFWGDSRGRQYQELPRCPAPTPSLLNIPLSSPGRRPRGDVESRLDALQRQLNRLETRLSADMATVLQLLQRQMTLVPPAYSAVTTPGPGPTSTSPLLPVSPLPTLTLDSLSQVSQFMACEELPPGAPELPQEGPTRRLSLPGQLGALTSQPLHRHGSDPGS

## CC(C)Cc1ccc2oc(-c3ccc(CN4CC(C(=O)O)C4)cc3)cc2c1
[1]
  pEC50: 6.82
[2]
  pEC50: 5.72

## O=C(O)C1CN(Cc2ccc(-c3cc4cc(OCC5CC5)ccc4o3)c(F)c2)C1
[1]
  pEC50: 6.54
[3]
  Efficacy: 156%
[2]
  pEC50: 5.32

## O=C(O)C1CN(Cc2ccc(-c3cc4cc(C5CCCCC5)ccc4o3)c(F)c2)C1
[1]
  pEC50: 7.32
[3]
  Efficacy: 100%
[2]
  pEC50: < 4.60

## O=C(O)C1CN(Cc2ccc(-c3cc4cc(Cc5ccccc5)ccc4o3)cc2F)C1
[1]
  pEC50: 6.60
[3]
  Efficacy: 100%
[2]
  pEC50: 5.46

## O=C(O)C1CN(Cc2ccc(-c3cc4cc(C5CCCCC5)ccc4o3)nc2)C1
[1]
  pEC50: 6.37
[3]
  Efficacy: 115%
[2]
  pEC50: < 4.60

## CCCCc1ccc2oc(-c3ccc(CN4CC(C(=O)O)C4)cc3)cc2c1
[1]
  pEC50: 5.61
[4]
  pEC50: 6.46
[2]
  pEC50: < 4.60

## O=C(O)C1CN(Cc2ccc(-c3cc4cc(N5CCCCC5)ccc4o3)cc2)C1
[1]
  pEC50: 6.21
[2]
  pEC50: 5.84
Homo sapiens
  Selectivity ratio: 2

## O=C(O)C1CN(Cc2ccc(-c3cc4cc(Oc5ccccc5)ccc4o3)cc2)C1
[2]
  pEC50: < 4.60

## CCCCOc1ccc2cc(-c3ccc(CN4CC(C(=O)O)C4)cc3)oc2c1
[1]
  pEC50: 5.64
[3]
  Efficacy: 89%
[2]
  pEC50: 4.60

## CC(C)(C)c1ccc(-c2noc(-c3ccc(CN4CC(C(=O)O)C4)cc3)n2)cc1
[5]
  pIC50: < 5.00

## CC(C)Cc1ccc(-c2nc(-c3ccc(CN4CC(C(=O)O)C4)cc3)no2)cc1
[5]
  pIC50: 4.92

## CCCCOc1ccc2oc(-c3ncc(CN4CC(C(=O)O)C4)s3)cc2c1
[1]
  pEC50: < 6.00
[2]
  pEC50: < 4.60

## O=C(O)C1CN(Cc2ccc(-c3cc4cc(Cc5ccccc5)ccc4o3)cc2)C1
[1]
  pEC50: 5.68
[4]
  pEC50: 6.36
[2]
  pEC50: < 5.37

## O=C(O)C1CN(Cc2ccc(-c3cc4cc(OCC5CCCC5)ccc4o3)c(F)c2)C1
[1]
  pEC50: 6.34
[3]
  Efficacy: 71%
[2]
  pEC50: < 4.60

## CCCCOc1ccc2oc(-c3ccc(CN4CC(C(=O)O)C4)cc3Cl)cc2c1
[1]
  pEC50: 6.80
[3]
  Efficacy: 104%
[2]
  pEC50: 4.99

## CC(C)(C)c1ccc(-c2nnc(-c3ccc(CN4CC(C(=O)O)C4)cc3)o2)cc1
[5]
  pIC50: < 5.00

## O=C(O)C1CN(Cc2ccc(-c3cc4cc(-c5cccnc5)ccc4o3)cc2)C1
[1]
  pEC50: 5.30
[4]
  pEC50: < 6.00
[2]
  pEC50: < 4.60

## FC(F)(F)c1cccc(-c2noc(-c3cc(-c4ccccc4)c(C(F)(F)F)s3)n2)c1
[5]
  pIC50: < 5.00

## CCCCOc1ccc2oc(-c3ccc(CN4CC(C(=O)O)C4)cc3OC)cc2c1
[1]
  pEC50: 6.19
[3]
  Efficacy: 117%
[2]
  pEC50: < 4.60

## O=C(O)C1CN(Cc2ccc(-c3cc4cc(Cc5ccccc5)ccc4o3)c(F)c2)C1
[6]
  half-life: > 1.5 h
[7]
  inhibition (INH): Not Active
[8]
  Activity: Non-toxic
Rattus norvegicus [9]
  Activity: Toxic
[1]
  pEC50: 7.24
[10]
  half-life: 21.1 h
Rattus norvegicus [11]
  inhibition in vivo at 1 mg/kg: 75%
[12]
  half-life: 12.1 h
[13]
  clearance: 0.138 L/h/kg
[14]
  pIC50: 4.77
Rattus norvegicus [15]
  inhibition: Dose-dependent effect
[16]
  MRT: 9 h
Rattus norvegicus [17]
  Activity: Non-toxic
[18]
  half-life: 4.7 h
[19]
  MRT: 3.4 h
[20]
  Vd: 1.7 L/kg
[2]
  pEC50: 4.57
Rattus norvegicus [21]
  inhibition in vivo at 3 mg/kg: 75%
[22]
  bioavailability: 88%
[23]
  bioavailability: 51%
[24]
  bioavailability: 80%
[25]
  MRT: 12.7 h
Mus musculus
  inhibition: Active
[26]
  NOAEL at 96 h: 20 mg/kg
[27]
  clearance: 0.309 L/h/kg
Rattus norvegicus [28]
  Activity: Toxic
Rattus norvegicus [29]
  Activity: Non-toxic
[30]
  clearance: 0.266 L/h/kg
[31]
  Vd: 1 L/kg
Homo sapiens
  Selectivity ratio: > 1000
[32]
  Vd: 2.2 L/kg
[33]
  Activity: Not Active

## CCCCOc1ccc2oc(-c3ccc(CN4CC(C(=O)O)C4)cc3)cc2c1
[2]
  pEC50: < 5.14

## O=C(O)C1CN(Cc2ccc(-c3cc4cc(CCc5ccccc5)ccc4o3)cc2)C1
[1]
  pEC50: 6.45
[2]
  pEC50: < 4.60

## O=C(O)C1CN(Cc2ccc(-c3cc4cc(C5CCCCC5)ccc4o3)cc2)C1
[1]
  pEC50: 6.34
[4]
  pEC50: 6.22
[2]
  pEC50: < 4.60

Source: ChEMBL document CHEMBL1649104, “Benzofuran Derivatives as Potent, Orally Active S1P1 Receptor Agonists: A Preclinical Lead Molecule for MS” (ACS Med Chem Lett, 2011)
